A value given as a limit tells only on which side of the number the result lay.

The test concerns the target T1, MLK-7 (Homo sapiens, UniProt Q9NYL2).
T1 construct: GST; His tag; made in house; host or cells: Sf9 insect cells (baculovirus, pVL1392)
Kind of test: In vitro assay of purified MLK-7 kinase activity (33P transfer from ATP to myelin basic protein). Format: biochemical. The following applies: recombinant GST-tagged MLK-7 at 1 nm, 30 uM ATP, 5 uM MBP substrate, 2 hours room temperature; read-out: MLK7 IC50. An excerpt:
In Vitro Assay of Purified Mixed Lineage Kinase 7 (MLK-7) Activity:
Briefly, recombinant glutathione-s-transferase (GST) tagged MLK-7 is expressed in Sf9 cells using a recombinant baculovirus created using baculovirus transfer vector pVL1392 modified to contain a GST and histidine tag. The recombinant protein is purified over a glutathione column and subsequently used for in vitro kinase assays with myelin basic protein (MBP) as the substrate for phosphorylation. The in vitro kinase reaction is run with recombinant MLK-7 at 1 nm and various concentrations of test compound in a reaction mixture containing 2 mM DTT, 30 uM ATP, 5 mM MgCl2, 5 uM MBP, 4% DMSO, 5 uCi 33P in 44 mM HEPES, (pH 7.4). The reaction is carried out for 2 hours at room temperature and then stopped by the addition of phosphoric acid to 5.5%. The phosphorylated MBP is collected on a filter and radioactivity associated with the membrane measured using a scintillation counter. Inhibitors are identified by the ability to reduce the transfer of radioactive phosphate from ATP to MBP compared to controls run without test compound.
IC50 values, defined as the concentration of test compound required to decrease the transfer of radioactive phosphate from ATP to MBP by 50%, are then determined. Ki values (which refers to the dissociation constant of an enzyme-antagonist complex and serves as an index of ligand binding) for each respective test compound can also be calculated by application of the Cheng-Prusoff equation as described in Cheng et al., Relationship Between The Inhibition Constant (Ki) and The Concentration of Inhibitor Which Causes 50% Inhibition (IC50) of an Enzymatic Reaction, Biochem. Pharmacol., 22: […]; (1973).
Representative compounds of the present invention have an IC50 in the MLK-7 kinase assay of ≦10,000 nM Table I (see infra.) provides IC50 data from the afore mentioned MLK-7 kinase assay for a representative sample of the exemplified compounds of the present invention.
Turning to “2-[4-(2-Pyridin-2-yl-5,6-dihydro-4H-pyrrolo[1,2-b]pyrazol-3-yl)quinolin-7-yl]phenyl}benzamide Trifluoroacetic Acid [Example 29]”, the IC50 is at most 10000 nM.

On to “4-[4-(2-Pyridin-2-yl-5,6-dihydro-4H-pyrrolo[1,2-b]pyrazol-3-yl]phenylamine Ditrifluoroacetic Acid [Example 10]”, for which the IC50 was at most 100 nM. As for “5-[4-(2-pyridin-2-yl-5,6-dihydro-4H-pyrrolo[1,2-b]pyrazol-3-yl)-7-pyrimidin-5-yl-quinolin-7-yl]pyrimidin-2-ylamine Difluoroacetic Acid [Example 89]”, the IC50 was at most 1000 nM.

As for “7-(3,5-Dichlorophenyl)-4-(2-Pyridin-2-yl-5,6-dihydro-4H-pyrrolo[1,2-b]pyrazol-3-yl)quinoline Trifluoroacetic Acid [Example 31]”, the IC50 was at most 1000 nM. Then “7-(3-Nitrophenyl)-4-(2-pyridin-2-yl-5,6-dihydro-4H-pyrrolo[1,2-b]pyrazol-3-yl)quinoline Trifluoroacetic Acid [Example 49]”, with at most 100 nM. For “7-(4-Benzo[b]thiophen-3-yl-phenyl)-4-(2-pyridin-2-yl-5,6-dihydro-4H-pyrrolo[1,2-b]pyrazol-3-yl)-quinoline Trifluoroacetic Acid [Example 54]” the value was at most 1000 nM.

For the molecule “7-(4-Methyl-3-nitro-phenyl)-4-(2-pyridin-2-yl-5,6-dihydro-4H-pyrrolo[1,2-b]pyrazol-3-yl)-quinoline Trifluoroacetic Acid [Example 52]”, the IC50 was at most 100 nM.

For the molecule `CC(C)(C)SCCNC(=O)c1ccc(-c2ccc3c(-c4c(-c5ccccn5)nn5c4CCC5)ccnc3c2)cc1` (racemic) [Example 127, (rac) N-(2-tert-Butylsulfanyl-ethyl)-4-[4-(2-pyridin-2-yl-5,6-dihydro-4H-pyrrolo[1,2-b]pyrazol-3-yl)-quinolin-7-yl]-benzamide], the IC50 was at most 1000 nM. For `O=C(NC1CCS(=O)(=O)C1)c1ccc(-c2ccc3c(-c4c(-c5ccccn5)nn5c4CCC5)ccnc3c2)cc1` (racemic) [Example 129, (rac)-N-(1,1-Dioxo-tetrahydro-1λ^6-thiophen-3-yl)-4-[4-(2-pyridin-2-yl-5,6-dihydro-4H-pyrrolo[1,2-b]pyrazol-3-yl)-quinolin-7-yl]-benzamide] the value was at most 100 nM; for `Cc1csc(-c2ccc3c(-c4c(-c5ccccn5)nn5c4CCC5)ccnc3c2)c1` [Example 2, 7-(4-methylthiophen-2-yl)-4-(2-pyridin-2-yl-5,6-dihydro-4H-pyrrolo[1,2-b]pyrazol-3-yl)quinoline Trifluoroacetic Acid], at most 100 nM; for `CC(=O)Nc1ccc(-c2ccc3c(-c4c(-c5ccccn5)nn5c4CCC5)ccnc3c2)cc1` [Example 3], at most 100 nM.

With `c1ccc(-c2ccc3c(-c4c(-c5ccccn5)nn5c4CCC5)ccnc3c2)cc1` [Example 4, 7-Phenyl-4-(2-pyridin-2-yl-5,6-dihydro-4H-pyrrolo[1,2-b]pyrazol-3-yl)quinoline Trifluoroacetic Acid], the IC50 was at most 100 nM. Then `Oc1ccccc1-c1ccc2c(-c3c(-c4ccccn4)nn4c3CCC4)ccnc2c1` [Example 5], with at most 1000 nM; and `Oc1cccc(-c2ccc3c(-c4c(-c5ccccn5)nn5c4CCC5)ccnc3c2)c1` [Example 6, 3-[4-(2-Pyridin-2-yl-5,6-dihydro-4H-pyrrolo[1,2-b]pyrazol-3-yl)quinolin-7-yl]phenol Trifluoroacetic Acid], with at most 100 nM. Then `Oc1ccc(-c2ccc3c(-c4c(-c5ccccn5)nn5c4CCC5)ccnc3c2)cc1` [Example 7, 4-[4-(2-Pyridin-2-yl-5,6-dihydro-4H-pyrrolo[1,2-b]pyrazol-3-yl)quinolin-7-yl]phenol Trifluoroacetic Acid], with at most 100 nM; and `Nc1ccccc1-c1ccc2c(-c3c(-c4ccccn4)nn4c3CCC4)ccnc2c1` [Example 8, 2-[4-(2-Pyridin-2-yl-5,6-dihydro-4H-pyrrolo[1,2-b]pyrazol-3-yl)quinolin-7-yl]phenylamine Ditrifluoroacetic Acid], with at most 1000 nM; and `Nc1cccc(-c2ccc3c(-c4c(-c5ccccn5)nn5c4CCC5)ccnc3c2)c1` [Example 9], with at most 100 nM.

Consider `Clc1cccc(-c2ccc3c(-c4c(-c5ccccn5)nn5c4CCC5)ccnc3c2)c1` [Example 11, 7-(3-Chlorophenyl)-4-(2-Pyridin-2-yl-5,6-dihydro-4H-pyrrolo[1,2-b]pyrazol-3-yl)quinoline Trifluoroacetic Acid], for which the IC50 was at most 100 nM. Then `Clc1ccc(-c2ccc3c(-c4c(-c5ccccn5)nn5c4CCC5)ccnc3c2)cc1` [Example 12, 7-(4-Chlorophenyl)-4-(2-pyridin-2-yl-5,6-dihydro-4H-pyrrolo[1,2-b]pyrazol-3-yl)quinoline Trifluoroacetic Acid], with at most 100 nM.

`O=[N+]([O-])c1ccc(-c2ccc3c(-c4c(-c5ccccn5)nn5c4CCC5)ccnc3c2)cc1` [Example 14, 7-(4-Nitrophenyl)-4-(2-pyridin-2-yl-5,6-dihydro-4H-pyrrolo[1,2-b]pyrazol-3-yl)quinoline Trifluoroacetic Acid]: the IC50 was at most 100 nM.

With `CS(=O)(=O)Nc1cccc(-c2ccc3c(-c4c(-c5ccccn5)nn5c4CCC5)ccnc3c2)c1` [Example 15, N-{3-[4-(2-Pyridin-2-yl-5,6-dihydro-4H-pyrrolo[1,2-b]pyrazol-3-yl)-quinolin-7-yl]-phenyl}methanesulfomamide Trifluoroacetic Acid], the IC50 is at most 100 nM. For the molecule `CS(=O)(=O)Nc1ccc(-c2ccc3c(-c4c(-c5ccccn5)nn5c4CCC5)ccnc3c2)cc1` [Example 16, N-{4-[4-(2-Pyridin-2-yl-5,6-dihydro-4H-pyrrolo[1,2-b]pyrazol-3-yl)quinolin-7-yl]phenyl}methanesulfonamide Trifluoroacetic Acid], the IC50 was at most 100 nM. Take `CCOc1ccccc1-c1ccc2c(-c3c(-c4ccccn4)nn4c3CCC4)ccnc2c1` [Example 17, 7-(2-Ethoxyphenyl)-4-(2-pyridin-2-yl-5,6-dihydro-4H-pyrrolo[1,2-b]pyrazol-3-yl)quinoline Trifluoroacetic Acid]: the IC50 was at most 10000 nM. Turning to `CCOc1cccc(-c2ccc3c(-c4c(-c5ccccn5)nn5c4CCC5)ccnc3c2)c1` [Example 18, 7-(3-Ethoxyphenyl)-4-(2-pyridin-2-yl-5,6-dihydro-4H-pyrrolo[1,2-b]pyrazol-3-yl)quinoline Trifluoroacetic Acid], the IC50 was at most 100 nM.

For the molecule `CCOc1ccc(-c2ccc3c(-c4c(-c5ccccn5)nn5c4CCC5)ccnc3c2)cc1` [Example 19, 7-(4-Ethoxyphenyl)-4-(2-pyridin-2-yl-5,6-dihydro-4H-pyrrolo[1,2-b]pyrazol-3-yl)quinoline Trifluoroacetic Acid], the IC50 was at most 100 nM. Then `COc1ccc(-c2ccc3c(-c4c(-c5ccccn5)nn5c4CCC5)ccnc3c2)cc1` [Example 20, 7-(4-Methoxyphenyl)-4-(2-pyridin-2-yl-5,6-dihydro-4H-pyrrolo[1,2-b]pyrazol-3-yl)quinoline Trifluoroacetic Acid], with at most 100 nM; and `Cc1cc(-c2ccc3c(-c4c(-c5ccccn5)nn5c4CCC5)ccnc3c2)ccc1F` [Example 21, 7-(4-Fluoro-3-methylphenyl)-4-(2-pyridin-2-yl-5,5-dihydro-4H-pyrrolo[1,2-b]pyrazol-3-yl)quinoline Trifluoroacetic Acid], with at most 1000 nM. Then `Cc1cc(F)ccc1-c1ccc2c(-c3c(-c4ccccn4)nn4c3CCC4)ccnc2c1` [Example 22, 7-(4-Fluoro-2-methylphenyl)-4-(2-pyridin-2-yl-5,6-dihydro-4H-pyrrolo[1,2-b]pyrazol-3-yl)quinoline Trifluoroacetic Acid], with at most 1000 nM. As to `Brc1ccc(-c2ccc3c(-c4c(-c5ccccn5)nn5c4CCC5)ccnc3c2)cc1` [Example 23, 7-(4-Bromophenyl)-4-(2-pyridin-2-yl-5,6-dihydro-4H-pyrrolo[1,2-b]pyrazol-3-yl)quinoline Trifluoroacetic Acid], the IC50 was at most 100 nM. In the case of `CCSc1ccc(-c2ccc3c(-c4c(-c5ccccn5)nn5c4CCC5)ccnc3c2)cc1` [Example 24, 7-(4-Ethylsulfanylphenyl)-4-(2-pyridin-2-yl-5,6-dihydro-4H-pyrrolo[1,2-b]pyrazol-3-yl)quinoline Trifluoroacetic Acid], the IC50 is at most 1000 nM.

Take `CSc1ccc(-c2ccc3c(-c4c(-c5ccccn5)nn5c4CCC5)ccnc3c2)cc1` [Example 25, 7-(4-Methylsulfanylphenyl)-4-(2-pyridin-2-yl-5,6-dihydro-4H-pyrrolo[1,2-b]pyrazol-3-yl)quinoline Trifluoroacetic Acid]: the IC50 is at most 1000 nM.

A word on the IC50: it is the concentration needed to halve the response being measured.

Values taken from patent US7511065B2, “Mixed lineage kinase modulators” (Eli Lilly and Company, priority 2002, dated 2009).
